Measurements as given in patent US20220033389A1, “INSECTICIDAL COMPOUNDS” (SYNGENTA CROP PROTECTION AG, priority 2018, published 2022).

What was measured:
Type in all cases: in vivo
[1] = system: Spodoptera littoralis (Egyptian Cotton Leaf Worm); assay: Spodoptera littoralis (Egyptian cotton leaf worm) on cotton leaf discs; details: foliar, 72 h, L1 larvae, 3 days after infestation
Description: Spodoptera littoralis (Egyptian Cotton Leaf Worm)
Cotton leaf discs were placed onto agar in 24-well microtiter plates and sprayed with aqueous test solutions prepared from 10′000 ppm DMSO stock solutions. After drying the leaf discs were infested with five L1 larvae. The samples were assessed for mortality, anti-feeding effect, and growth inhibition in comparison to untreated samples 3 days after infestation. Control of Spodoptera littoralis by a test sample is given when at least one of the categories mortality, anti-feedant effect, and growth inhibition is higher than the untreated sample.

[2] = system: Thrips tabaci (Onion Thrips); assay: Thrips tabaci (onion thrips) feeding/contact activity; details: 144 h, mixed ages, 6 days after infestation
Description: Thrips tabaci (Onion Thrips) Feeding/Contact Activity
(§1) Sunflower leaf discs were placed on agar in 24-well microtiter plates and sprayed with aqueous test solutions prepared from 10′000 ppm DMSO stock solutions. After drying the leaf discs were infested with a thrips population of mixed ages. The samples were assessed for mortality 6 days after infestation.

[3] = system: Euschistus heros (Neotropical Brown Stink Bug); assay: Euschistus heros (neotropical brown stink bug) on soybean leaves, spray; details: 120 h, N2 nymphs, 5 days after infestation, read-out: effect in at least one of the two categories (mortality or growth inhibition)
Description: Euschistus heros(Neotropical Brown Stink Bug) Soybean leaves on agar in 24-well microtiter plates were sprayed with aqueous test solutions prepared from 10′000 ppm DMSO stock solutions. After drying the leaves were infested with N2 nymphs. The samples were assessed for mortality and growth inhibition in comparison to untreated samples 5 days after infestation.

[4] = system: Plutella xylostella (Diamond Back Moth); assay: Plutella xylostella (diamond back moth), eggs on artificial diet; details: 192 h, 8 days after infestation, read-out: effect in at least one of the two categories (mortality or growth inhibition)
Description: (§2) Plutella xylostella (Diamond Back Moth)
24-well microtiter plates with artificial diet were treated with aqueous test solutions prepared from 10′000 ppm DMSO stock solutions by pipetting. After drying, Plutella eggs were pipetted through a plastic stencil onto a gel blotting paper and the plate was closed with it. The samples were assessed for mortality and growth inhibition in comparison to untreated samples 8 days after infestation.

[5] = system: Tetranychus urticae (Two-Spotted Spider Mite); assay: Tetranychus urticae (two-spotted spider mite) feeding/contact activity; details: 192 h, mixed population (mobile stages), 8 days after infestation
Description: Tetranychus urticae (Two-Spotted Spider Mite): Feeding/Contact Activity
as §1, with “Bean” for “Sunflower”, “discs” for “discs were placed”, “were” for “and”, “mite” for “thrips”, “on mixed population (mobile stages) 8” for “6”

[6] = system: Diabrotica balteata (Corn Root Worm); assay: Diabrotica balteata (corn root worm) on maize sprouts, spray; details: 96 h, L2 larvae, 4 days after infestation, read-out: effect in at least one of the two categories (mortality or growth inhibition)
Description: Diabrotica balteata (Corn Root Worm)
Maize sprouts placed onto an agar layer in 24-well microtiter plates were treated with aqueous test solutions prepared from 10′000 ppm DMSO stock solutions by spraying. After drying, the plates were infested with L2 larvae (6 to 10 per well). The samples were assessed for mortality and growth inhibition in comparison to untreated samples 4 days after infestation.

[7] = system: Plutella xylostella (Diamond Back Moth); assay: Plutella xylostella (diamond back moth), L2 larvae on artificial diet; details: 120 h, 5 days after infestation, read-out: effect in at least one of the two categories (mortality or growth inhibition)
Description: as §2
24-well microtiter plates with artificial diet were treated with aqueous test solutions prepared from 10′000 ppm DMSO stock solutions by pipetting. After drying, the plates were infested with L2 larvae (10 to 15 per well). The samples were assessed for mortality and growth inhibition in comparison to untreated samples 5 days after infestation.

[8] = system: Myzus persicae (Green Peach Aphid); assay: Myzus persicae (green peach aphid) feeding/contact activity; details: 144 h, mixed ages, 6 days after infestation
Description: Myzus persicae (Green Peach Aphid): Feeding/Contact Activity
Sunflower leaf discs were placed onto agar in a 24-well microtiter plate and sprayed with aqueous test solutions prepared from 10′000 ppm DMSO stock solutions. After drying, the leaf discs were infested with an aphid population of mixed ages. The samples were assessed for mortality 6 days after infestation.

CCOC1=NOC(N(COC(=O)N(C)C)C(=O)c2ccc(C3=NO[C@@](c4cc(Cl)c(F)c(Cl)c4)(C(F)(F)F)C3)cc2C)C1 (stereo partly drawn) [Compound A5, [[4-[(5S)-5-(3,5-dichloro-4-fluoro-phenyl)-5-(trifluoromethyl)-4H-isoxazol-3-yl]-2-methyl-benzoyl]-(3-ethoxy-4,5-dihydroisoxazol-5-yl)amino]methyl N,N-dimethylcarbamate]
≥ 80%: percent control (mortality, anti-feedant effect or growth inhibition) at 200 ppm [1] | mortality at 200 ppm [2] | percent effect (mortality or growth inhibition) at 200 ppm [3] | percent effect (mortality or growth inhibition) at 200 ppm [4] | mortality at 200 ppm [5] | percent effect (mortality or growth inhibition) at 200 ppm [6]

CCOC1=NOC(N(COC(=O)C(C)(C)C)C(=O)c2ccc(C3=NO[C@@](c4cc(Cl)c(F)c(Cl)c4)(C(F)(F)F)C3)cc2C)C1 (stereo partly drawn) [Compound A3, [[4-[(5S)-5-(3,5-dichloro-4-fluoro-phenyl)-5-(trifluoromethyl)-4H-isoxazol-3-yl]-2-methyl-benzoyl]-(3-ethoxy-4,5-dihydroisoxazol-5-yl)amino]methyl 2,2-dimethylpropanoate]
≥ 80%: percent control (mortality, anti-feedant effect or growth inhibition) at 200 ppm [1] | effect (mortality or growth inhibition) at 200 ppm [7] | mortality at 200 ppm [2] | percent effect (mortality or growth inhibition) at 200 ppm [3] | mortality at 200 ppm [5] | percent effect (mortality or growth inhibition) at 200 ppm [6] | mortality at 200 ppm [8]

CCOC1=NOC(N(COC(=O)C2CC2)C(=O)c2ccc(C3=NO[C@@](c4cc(Cl)c(F)c(Cl)c4)(C(F)(F)F)C3)cc2C)C1 (stereo partly drawn) [Compound A7, [[4-[(5S)-5-(3,5-dichloro-4-fluoro-phenyl)-5-(trifluoromethyl)-4H-isoxazol-3-yl]-2-methyl-benzoyl]-(3-ethoxy-4,5-dihydroisoxazol-5-yl)amino]methyl cyclopropanecarboxylate]
≥ 80%: percent control (mortality, anti-feedant effect or growth inhibition) at 200 ppm [1] | percent effect (mortality or growth inhibition) at 200 ppm [3] | percent effect (mortality or growth inhibition) at 200 ppm [4]

CCOC1=NOC(N(C(=O)c2ccc(C3=NO[C@@](c4cc(Cl)c(F)c(Cl)c4)(C(F)(F)F)C3)cc2C)C(=O)C2CC2)C1 (stereo partly drawn) [Compound A1, N-(cyclopropanecarbonyl)-4-[(5S)-5-(3,5-dichloro-4-fluoro-phenyl)-5-(trifluoromethyl)-4H-isoxazol-3-yl]-N-(3-ethoxy-4,5-dihydroisoxazol-5-yl)-2-methyl-benzamide]
≥ 80%: percent control (mortality, anti-feedant effect or growth inhibition) at 200 ppm [1] | effect (mortality or growth inhibition) at 200 ppm [7] | mortality at 200 ppm [2] | percent effect (mortality or growth inhibition) at 200 ppm [3] | mortality at 200 ppm [5] | percent effect (mortality or growth inhibition) at 200 ppm [6] | mortality at 200 ppm [8]

CCOC1=NOC(N(COC(=O)C(C)C)C(=O)c2ccc(C3=NO[C@@](c4cc(Cl)c(F)c(Cl)c4)(C(F)(F)F)C3)cc2C)C1 (stereo partly drawn) [Compound A2, [[4-[(5S)-5-(3,5-dichloro-4-fluoro-phenyl)-5-(trifluoromethyl)-4H-isoxazol-3-yl]-2-methyl-benzoyl]-(3-ethoxy-4,5-dihydroisoxazol-5-yl)amino]methyl 2-methylpropanoate]
≥ 80%: percent control (mortality, anti-feedant effect or growth inhibition) at 200 ppm [1] | effect (mortality or growth inhibition) at 200 ppm [7] | mortality at 200 ppm [2] | percent effect (mortality or growth inhibition) at 200 ppm [3] | mortality at 200 ppm [5] | percent effect (mortality or growth inhibition) at 200 ppm [6] | mortality at 200 ppm [8]

CCOC1=NOC(N(COC(=O)OC)C(=O)c2ccc(C3=NO[C@@](c4cc(Cl)c(F)c(Cl)c4)(C(F)(F)F)C3)cc2C)C1 (stereo partly drawn) [Compound A6, [[4-[(5S)-5-(3,5-dichloro-4-fluoro-phenyl)-5-(trifluoromethyl)-4H-isoxazol-3-yl]-2-methyl-benzoyl]-(3-ethoxy-4,5-dihydroisoxazol-5-yl)amino]methyl methyl carbonate]
≥ 80%: percent control (mortality, anti-feedant effect or growth inhibition) at 200 ppm [1] | percent effect (mortality or growth inhibition) at 200 ppm [3] | percent effect (mortality or growth inhibition) at 200 ppm [4]

CCOC1=NOC(N(CN(C)C(=O)OC)C(=O)c2ccc(C3=NO[C@@](c4cc(Cl)c(F)c(Cl)c4)(C(F)(F)F)C3)cc2C)C1 (stereo partly drawn) [Compound A4, methyl N-[[[4-[(5S)-5-(3,5-dichloro-4-fluoro-phenyl)-5-(trifluoromethyl)-4H-isoxazol-3-yl]-2-methyl-benzoyl]-(3-ethoxy-4,5-dihydroisoxazol-5-yl)amino]methyl]-N-methyl-carbamate]
≥ 80%: percent control (mortality, anti-feedant effect or growth inhibition) at 200 ppm [1] | mortality at 200 ppm [2] | percent effect (mortality or growth inhibition) at 200 ppm [3] | percent effect (mortality or growth inhibition) at 200 ppm [4] | mortality at 200 ppm [5] | percent effect (mortality or growth inhibition) at 200 ppm [6] | mortality at 200 ppm [8]
